Results: patent publication US9708368B2, “Linear peptide antibiotics” (priority 2012, dated 2017)
Values after ≈ are worked out from the molar mass of the structure shown. Square brackets hold non-standard residues; d marks the D form. Peptide text beside a SMILES is read from it. * marks the point of attachment. ξ: configuration not given here. boroAla((+)-pinanediol) = C[C@H](N*)B1O[C@@H]2C[C@@H]3C[C@@H](C3(C)C)[C@]2(C)O1; Biphenylcarbonyl(4'-Bu) = CCCCc1ccc(-c2ccc(C(=O)*)cc2)cc1; X1 = C[C@H](N*)B1OC2C[C@@H]3C[C@@H](C3(C)C)[C@]2(C)O1; Thr(3ξ) = CC(O)[C@H](N)C(=O)O; Decanoyl = CCCCCCCCCC(=O)*; 4Amb = NCc1ccc(C(=O)O)cc1; boroAla = C[C@H](N*)B(O)O; Aze = O=C(O)[C@@H]1CCN1; Dab = NCC[C@H](N)C(=O)O; Dap = NC[C@H](N)C(=O)O; X14 = CCCCc1ccc(*)cc1; βAla = NCCC(=O)O

Key:
[1] = test system: Escherichia coli strain MC4100 IMP-4213, which harbors an LptD mutation; conditions: Method B; E. coli MC4100 IMP-4213 (LptD mutation); 35° C., 22 hours
Summary of the method: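 Two-fold serial dilutions of compound inoculated at final OD600 0.0005, incubated static at 35 °C for 22 h, and growth read visually.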

[2] = test system: methicillin resistant Staphylococcus aureus (MRSA) strain USA300 (NRS384); conditions: Method B, 35° C., 22 hours
[3] = target: S. aureus SPase (Staphylococcus aureus, UniProt P0A070); assay: biochemical
[4] = target: E. coli SPase (Escherichia coli, UniProt P00803); assay: Biochemical SPase activity assay (fluorogenic peptide substrate), E. coli enzyme
Sequence of E. coli SPase (P00803 whole entry): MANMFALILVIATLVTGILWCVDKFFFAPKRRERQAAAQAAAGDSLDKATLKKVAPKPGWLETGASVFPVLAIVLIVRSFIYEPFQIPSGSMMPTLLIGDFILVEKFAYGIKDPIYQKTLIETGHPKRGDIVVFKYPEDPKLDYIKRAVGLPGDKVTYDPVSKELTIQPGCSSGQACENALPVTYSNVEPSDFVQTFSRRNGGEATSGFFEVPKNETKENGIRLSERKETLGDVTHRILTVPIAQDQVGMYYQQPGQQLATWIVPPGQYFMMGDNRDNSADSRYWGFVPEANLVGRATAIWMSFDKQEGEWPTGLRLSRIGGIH

Sequence of S. aureus SPase (P0A070 whole entry): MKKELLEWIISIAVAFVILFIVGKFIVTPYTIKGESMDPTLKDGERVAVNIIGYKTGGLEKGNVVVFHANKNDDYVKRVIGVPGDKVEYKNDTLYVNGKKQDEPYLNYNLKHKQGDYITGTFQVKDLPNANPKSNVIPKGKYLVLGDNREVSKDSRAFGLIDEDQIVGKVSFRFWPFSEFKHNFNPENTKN

SMILES	MIC (μg/mL) E. coli [1] [µg/mL]	MIC (μg/mL) S. aureus [2] [µg/mL]	IC50 [3] [nM]	IC50 [4] [nM]
CCCCc1ccc(-c2ccc(C(=O)N[C@@H](CN)C(=O)N[C@H](C(=O)N[C@@H](C)C(=O)N[C@@H](CCCCN)C(=O)N[C@@H](C)B3O[C@@H]4C[C@@H]5C[C@@H](C5(C)C)[C@]4(C)O3)[C@@H](C)O)cc2)cc1 [Compound 149] ({Biphenylcarbonyl(4'-Bu)}-[Dap]TAK-{boroAla((+)-pinanediol)})	0.31 (≈ 0.366 µM)	0.28 (≈ 0.331 µM)	129	3.9
CCCCc1ccc(NCc2ccc(C(=O)N[C@@H](CCN)C(=O)N[C@H](C(=O)N[C@@H](C)C(=O)N[C@@H](CCCCN)C(=O)N[C@@H](C)B3OC4C[C@@H]5C[C@@H](C5(C)C)[C@]4(C)O3)[C@@H](C)O)cc2)cc1 (stereo partly shown) [Compound 250] ({X14-4Amb}-[Dab]TAK-X1)	0.71 (≈ 0.799 µM)	0.35 (≈ 0.394 µM)	110	8.4
CCCCc1ccc(-c2ccc(C(=O)N[C@@H]3CN[C@H](C(=O)N[C@H](C(=O)N[C@@H](C)C(=O)N[C@@H](CCCCN)C(=O)N[C@@H](C)B4OC5C[C@@H]6C[C@@H](C6(C)C)[C@]5(C)O4)[C@@H](C)O)C3)cc2)cc1 (stereo partly shown) [Compound 268]	16 (≈ 18.4 µM)	1 (≈ 1.15 µM)	81	1600
CCCCc1ccc(-c2ccc(C(=O)N[C@@H](CCN)C(=O)N[C@H](C(=O)N[C@@H](C)C(=O)N[C@@H](CCCCN)C(=O)N[C@@H](C)B3OC4C[C@@H]5C[C@@H](C5(C)C)[C@]4(C)O3)C(C)O)cc2)cc1 (stereo partly shown) [Compound 148] ({Biphenylcarbonyl(4'-Bu)}-[Dab][Thr(3ξ)]AK-X1)	0.4 (≈ 0.465 µM)	0.23 (≈ 0.267 µM)	140	7.4
CCCCc1ccc(-c2ccc(C(=O)NCCC(=O)N[C@@H](CCCCN)C(=O)N[C@@H](CCCCN)C(=O)N[C@@H](C)C(=O)N[C@@H](CCCCN)C(=O)N[C@@H](C)B(O)O)cc2)cc1 [Compound 224] ({Biphenylcarbonyl(4'-Bu)-βAla}-KKAK-boroAla)	2.8 (≈ 3.29 µM)	0.13 (≈ 0.153 µM)	12	55
CCCCc1ccc(-c2ccc(C(=O)N[C@@H](CCN)C(=O)N3CC[C@H]3C(=O)N[C@@H](C)C(=O)N[C@@H](CCCCN)C(=O)N[C@@H](C)B3O[C@@H]4C[C@@H]5C[C@@H](C5(C)C)[C@]4(C)O3)cc2)cc1 [Compound 183] ({Biphenylcarbonyl(4'-Bu)}-[Dab][Aze]AK-{boroAla((+)-pinanediol)})	1 (≈ 1.19 µM)	1 (≈ 1.19 µM)	610	20
C[C@H](NC(=O)[C@H](CCCCN)NC(=O)[C@H](C)NC(=O)[C@@H](NC(=O)[C@H](CCN)NC(=O)c1ccc(-c2ccc(C(F)(F)F)cc2)cc1)[C@@H](C)O)B1OC2C[C@@H]3C[C@@H](C3(C)C)[C@]2(C)O1 (stereo partly shown) [Compound 237]	2 (≈ 2.29 µM)	0.71 (≈ 0.814 µM)	210	16
CCCCc1ccc(-c2ccc(C(=O)N[C@H]3CN[C@H](C(=O)N[C@H](C(=O)N[C@@H](C)C(=O)N[C@@H](CCCCN)C(=O)N[C@@H](C)B4OC5C[C@@H]6C[C@@H](C6(C)C)[C@]5(C)O4)[C@@H](C)O)C3)cc2)cc1 (stereo partly shown) [Compound 269]	8 (≈ 9.18 µM)	0.5 (≈ 0.573 µM)	340	1800
CCCCCCCCCC(=O)N[C@@H](CN)C(=O)N[C@H](C(=O)N[C@@H](C)C(=O)N[C@@H](CCCCN)C(=O)N[C@@H](C)B1OC2C[C@@H]3C[C@@H](C3(C)C)[C@]2(C)O1)[C@@H](C)O (stereo partly shown) [Compound 169] (Decanoyl-[Dap]TAK-X1)	11 (≈ 14.4 µM)	3.2 (≈ 4.19 µM)	87	3.9
CCCCc1ccc(-c2ccc(C(=O)N[C@@H](CCCCN)C(=O)N[C@@H](C)C(=O)N[C@@H](CC(C)C)C(=O)N[C@@H](C)B(O)O)cc2)cc1 [Compound 191]	16 (≈ 25.1 µM)	20 (≈ 31.4 µM)	50000	38000
